Results published in patent US7033829B2, “Method to inhibit cell growth using oligonucleotides” (Trustees of Boston University, priority 2000, dated 2006).
Oligonucleotides are written 5' to 3', each unit as a sugar letter and its base; * is a phosphorothioate linkage, no mark a phosphodiester; rarer units and linkages stand in square brackets, end groups in braces. Plain capitals give the bases only. d = 2'-deoxy (DNA); {P} = phosphate

What was measured:
human melanocytes = test: Melanogenesis in human melanocytes; type: cell-based; conditions: after one week in culture
telomere 3′ overhang = test: 3′ overhang assay in fibroblasts; type: cell-based, human; conditions: 40 μM; up to 7 days
[1] = system: serine 15-phosphorylated p53, total p53, E2F1; test: Western blot of p53 serine 15 phosphorylation and E2F1 in normal control fibroblasts; type: cell-based, human; conditions: 40 μM
Method: Because the serine 15 site on p53 is known to be phosphorylated in an ATM-dependent manner after exposure to ionizing radiation (IR), we wished to examine the role of ATM in E2F1 induction and p53 serine 15 phosphorylation in response to the 11 mer-1. Fibroblasts from a patient with ataxia telangiectasia (AT) known to lack functional ATM protein, and age-matched normal control fibroblasts (N) were treated with either diluent, 40 μM 11mer-1, sham irradiation or IR (10 Gy). Cells were collected 3 hours (sham or IR) or 48 hours (diluent, 11mer-1) for western blot analysis to detect serine 15-phosphorylated p53 and total p53. In normal fibroblasts, the 11mer-1 induced a 10–15 fold increase in the level p53 phosphorylation on serine 15 compared to diluent-treated controls.

[2] = system: mitochondrial enzymes ATPase, cytochrome c oxidase and NADH dehydrogenase genes; test: DNA microarray / RT-PCR / northern of mitochondrial genes in SCC12F; type: cell-based, human
From the text: Exposure of keratinocytes to UVB irradiation affects the expression of genes involved in cell cycle arrest, DNA repair and cytokine production. Single-stranded oligonucleotides sharing sequence homology with the telomere 3′ overhang, when introduced into cells, mimic these UV effects. To identify other genes that may be similarly modulated, cells of keratinocyte origin (SCC12F; a human epidermal squamous cell carcinoma line provided by Dr. James Rheinwald of Harvard University) were exposed to solar simulated irradiation (SSR) (20 mJ/cm^2, measured at 285±5 nm), to an 11-base oligonucleotide (pGTTAGGGTTAG; SEQ ID NO:5) homologous to the telomere overhang (T-oligo), or to a complementary sequence as control [pCTAACCCTAAC; (SEQ ID NO:9) control oligonucleotide]. […] These are mitochondrial-transcribed genes whose encoded proteins participate in cellular respiration.

caspase-3 = test: Caspase-3 activity in Jurkat cells; type: cell-based, human; conditions: 40 μM
Method: Duplicate cultures of Jurkat cells were cultured and treated with oligonucleotides as described above. At 48, 72 and 96 hours of treatment, cells were collected by centrifugation, washed and then the pellet lysed by repeated cycles of freeze-thawing. The lysate was then clarified by centrifugation and the supernatant used for protein analysis and Caspase-3 activity assay using the components and instructions of the Colorimetric CaspACE Assay System from Promega (Madison, Wis.). The assay uses the substrate Ac-DEVD-pNA and calorimetrically measures release of free pNA. Caspase activity is expressed as pmol of pNA produced/hour/μg protein.
Apoptosis was also detected by the DNA end-labeling TUNEL assay. Jurkat cells were treated with 40 μM oligonucleotides for 72 hours. Cells were then collected and the TUNEL assay was carried out. […] The activation of caspase-3, another marker of apoptosis, was also examined. Duplicate cultures of Jurkat cells were cultured and treated with oligonucleotides as described above for 48, 72 and 96 hours and caspase-3 activity was measured. The activity of caspase-3 was 50% higher after 48 hours of treatment with the telomere overhang homolog, compared to controls, and 3–4 fold higher in these cells at 72 and 96 hours (FIG. 27). Thus, the oligonucleotide homologous to the telomere 3′ overhang specifically induces an S phase arrest and apoptosis in these cells.

contact hypersensitivity = test: Contact hypersensitivity to DNFB (ear swelling); type: in vivo, C57B16 mice; conditions: 30 μl of 100 μM BID×5d topical to abdominal skin before sensitization
Method: C57B16 mice were subjected to the following treatment prior to sensitization with the allergen DNFB, by topical administration to abdominal skin; no pretreatment, UVB irradiation (200 J/m^2/dx4d), pTpT, pApA, or vehicle alone (30 μl of 100 μM BID×5d).

[3] = system: p53, PCNA and the XPA protein; test: Western blot of DNA repair proteins in keratinocytes; type: cell-based, human; conditions: within 2 days of treatment
Method: Cells were treated with 100 μM pTpT or an equal volume of diluent alone for 48 hours. Total cellular proteins were collected in a buffer consisting of 0.25 M Tris HCl (pH 7.5), 0.375 M NaCl, 2.5% sodium deoxycholate, 1% Triton X-100, 25 mM MgCl2, 1 mM phenylmethyl sulfonyl fluoride, and 0.1 mg ml aprotinin. Proteins (100 μg per sample) were separated by 7.5–15% SDS-PAGE and transferred to a nitrocellulose membrane (Schleicher & Schuell, Keene, N. H.). After transfer, the gel was stained with Coomassie Blue to verify even loading as visualized by the residual high molecular weight proteins. Membranes were blocked in 0.05% Tween-20/PBS with 5% milk, (Bio-Rad Laboratories, Hercules, Calif.). Antibody reactions were performed with the following antibodies: anti p53 (AB-6), anti PCNA (Ab-2) (Oncogene Science), and anti XPA (FL-273) (Santa Cruz Biotechnology). Sheep anti-mouse Ig linked to horseradish peroxidase (Amersham, Arlington Heights, Ill.) (for p53 and PCNA) and goat anti-rabbit IgG (Bio-Rad)(for XPA) were used as the secondary antibodies. Binding was detected by the ECL detection kit (Amersham).
Western blot analysis was used to examine the effect of pTpT treatment on the expression of selected genes known to be involved in DNA repair.

[4] = system: Human melanoma cell lines CRL 1424, Malma, Sk Mel 2, and Sk Mel 28; test: Cell yield of human melanoma cell lines; type: cell-based; conditions: 100 μM; one week; any of four cell lines
Method: Human melanoma cell lines CRL 1424, Malma, Sk Mel 2, and Sk Mel 28 were obtained from the American Type Culture Collection (ATCC). The cell lines were maintained in DME+2% calf serum, and dosed with either water (diluent) with DME, or 100 μM T2 in DME. One week after dosage, cells were collected and counted by Coulter™ counter.

pGAGTATGAG (DNA, 5' {P}, backbone not given here) [SEQ ID NO: 1]
increase in melanogenesis (human melanocytes): 51–62%

pGTTAGGGTTAG (DNA {P}-dGdTdTdAdGdGdGdTdTdAdG) [SEQ ID NO: 5]
degradation of the telomere 3′ overhang (telomere 3′ overhang): did not result in degradation of the telomere 3′ overhang | E2F1 levels [1]: induced E2F1 levels | increase in p53 phosphorylation on serine 15 compared to diluent ([1]; 48 hours): 10–15 fold | level of total p53 ([1]; young adult donor, 48 hours): minimally induced | downregulation of 8 genes (microarray) [2]: > 50% | genes downregulated as early as ([2]; RT-PCR and northern blot): 48 h | caspase-3 activity higher compared to controls (caspase-3; 72 and 96 hours): 3–4 fold | caspase-3 activity higher compared to controls (caspase-3; 48 hours): 50%

thymidine dinucleotide [pTpT]
ear swelling responses to DNFB challenge (contact hypersensitivity): 0.9±0.3 | up-regulation of levels of p53, PCNA and XPA protein [3]: 2 to 3 fold | cell yields [4]: marked decreases in cell yields
